Measured values as given in patent publication US20050175550A1, “Compositions for oral use” (priority 2000, published 2005).

Assays:
Test in all cases: MIC by agar plate dilution method on standard strains (Example 3)
Assay type in all cases: cell-based
[1] = tested on: Moraxella (Branhamella) catarrhalis ATCC43617
Method: (§1) Drug solutions at a concentration 10 times as high as the maximum applicable concentration were prepared as original solutions of test drugs given in Table 2 (as to solvents used for this purpose, reference should be made also to Table 2). Serial two-fold dilution series of the original solutions were prepared at desired stages, and 1 ml each of the diluted drug solutions was added to 9 ml of media given in Table 3 to prepare drug plates. […] • 1) Bacterial solutions stocked at −80° C. were inoculated on agar media (as to media used, reference should be made to Table 3), and then incubated at 37° C. overnight. When desired, subculturing was conducted once more on the same agar media (by overnight incubation at 37° C.). • 2) Colonies growing on the agar media were sampled by a platinum loop, suspended in liquid media (reference should be made to Table 3) and statically incubated at 37° C. for 18 hours (preculturing). • 3) Preculturing was continued up to McFarland 0.5 (McFarland 0.5=about 10^8 CFU/ml), and then the culture broths were diluted with Muellar Hinton Broth to make 10^6 CFU/ml. 5 μl each of the diluted solutions were inoculated on the above-mentioned drug plates by an inoculator Microplanter. […] Thus, bacterial solutions at about 10^8 CFU/ml can be easily prepared by use of McFarland 0.5. Bacterial solutions at such a turbidity are commercially available, but can be easily prepared.

[2] = tested on: Pseudomonas aeruginosa ATCC27853
Method: as §1

[3] = tested on: Serratia marcescens ATCC13880
Method: as §1

[4] = tested on: Staphylococcus aureus ATCC29247
Method: as §1

[5] = tested on: Staphylococcus aureus ATCC6538P
Method: as §1

[6] = tested on: Streptococcus agalactiae ATCC13813
Method: as §1

[7] = tested on: Streptococcus pneumoniae ATCC49619
Method: as §1

[8] = tested on: Streptococcus pneumoniae ATCC6301
Method: as §1

[9] = tested on: Streptococcus pneumoniae ATCC6303
Method: as §1

[10] = tested on: Streptococcus pneumoniae ATCC6306
Method: as §1

[11] = tested on: Streptococcus pyogenes ATCC12344
Method: as §1

[12] = tested on: Streptococcus pyogenes ATCC12353
Method: as §1

[13] = tested on: Streptococcus pyogenes ATCC12385
Method: as §1

Measured: MIC

N[C@@H](CCSC(F)(F)F)C(=O)O [TFM, Trifluoromethionine]
100 µg/mL: [1]
>400 µg/mL: all other assays above
